Key:
Format in all cases: in vivo
[1] = test system: redroot pigweed (Amaranthus retroflexus, AMARE); assay: Pre-emerge test, greenhouse herbicide activity screening; settings: pre-emerge, 14 days after application, rating scale 0-100
Summary of the method: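 Compounds in acetone were track-sprayed at 15-1000 g ai/ha (187 l/ha) on sandy loam pots: pre-emerge one day after seeding, post-emerge at 2-3 leaf stage with 0.25% v/v non-ionic surfactant. Phytotoxicity was rated 14 days later on a 0 (no damage) to 100 (complete death) scale.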

[2] = test system: barnyardgrass (Echinochloa crus-galli, ECHCG); assay: as above; settings: pre-emerge, 14 days after application, rating scale 0-100
Summary of the method: (§1)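 Fourteen days after spraying, crop and weed injury was graded visually from 0, no effect, to 100, every plant dead. Test substances were dissolved in acetone and applied at 15–1000 g ai/ha with a flat-fan nozzle. Application was either pre-emergence, one day after sowing, or post-emergence at the 2–3 leaf stage.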

[3] = test system: green foxtail (Setaria viridis, SETVI); assay: as above; settings: pre-emerge, 14 days after application, rating scale 0-100
Summary of the method: as §1

[4] = test system: ivyleaf morningglory (Ipomoea hederacea, IPOHE); assay: as above; settings: pre-emerge, 14 days after application, rating scale 0-100
Summary of the method: as §1

[5] = test system: johnsongrass (Sorghum halepense, SORHA); assay: as above; settings: pre-emerge, 14 days after application, rating scale 0-100
Summary of the method: as §1

[6] = test system: lambsquarters (Chenopodium album, CHEAL); assay: as above; settings: pre-emerge, 14 days after application, rating scale 0-100
Summary of the method: as §1

[7] = test system: large crabgrass (Digitaria sanguinalis, DIGSA); assay: as above; settings: pre-emerge, 14 days after application, rating scale 0-100
Summary of the method: as §1

[8] = test system: sicklepod (Cassia obtusifolia, CASOB); assay: as above; settings: pre-emerge, 14 days after application, rating scale 0-100
Summary of the method: as §1

[9] = test system: velvetleaf (Abutilon theophrasti, ABUTH); assay: as above; settings: pre-emerge, 14 days after application, rating scale 0-100
Summary of the method: as §1

[10] = test system: field corn (Zea mays L., var. Dekalb 535, CORN); assay: Pre-emerge test, crop safety; settings: pre-emerge, 14 days after application, rating scale 0-100
Summary of the method: (§2)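 Visual ratings on a 0-100 scale (0 no damage, 100 all plants dead) were taken at 14 days after treatment. Rates of 15-1000 g ai/ha in acetone, 187 l/ha, were sprayed onto soil one day after planting (pre-emerge) or onto 2-3 leaf plants with 0.25% v/v surfactant (post-emerge).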

[11] = test system: upland rice (Oryza sp., var. Tebonnet, RICE); assay: Pre-emerge test, crop safety; settings: pre-emerge, 14 days after application, rating scale 0-100
Summary of the method: as §2

[12] = test system: barnyardgrass (Echinochloa crus-galli, ECHCG); assay: Post-emerge test, greenhouse herbicide activity screening; settings: rating scale 0-100 (0 no damage, 100 complete death), 14 days after application
Summary of the method: (§3)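 Sandy loam pots; pre-emerge: sown 1 d pre-spray, surface-watered after, then bottom-watered. Post-emerge: sown 8–21 d before, 2–3 leaf stage, + 0.25% v/v NIS, bottom-watered. Acetone, 187 l/ha track spray, 15–1000 g ai/ha. 0–100 injury score, day 14.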

[13] = test system: common ragweed (Ambrosia artemisizfolia L., AMBEL); assay: as above; settings: rating scale 0-100 (0 no damage, 100 complete death), 14 days after application
Summary of the method: as §3

[14] = test system: green foxtail (Setaria viridis, SETVI); assay: as above; settings: rating scale 0-100 (0 no damage, 100 complete death), 14 days after application
Summary of the method: as §3

[15] = test system: ivyleaf morningglory (Ipomoea hederacea, IPOHE); assay: as above; settings: rating scale 0-100 (0 no damage, 100 complete death), 14 days after application
Summary of the method: as §3

[16] = test system: johnsongrass (Sorghum halepense, SORHA); assay: as above; settings: rating scale 0-100 (0 no damage, 100 complete death), 14 days after application
Summary of the method: as §3

[17] = test system: lambsquarters (Chenopodium album, CHEAL); assay: as above; settings: rating scale 0-100 (0 no damage, 100 complete death), 14 days after application
Summary of the method: as §3

[18] = test system: large crabgrass (Digitaria sanguinalis, DIGSA); assay: as above; settings: rating scale 0-100 (0 no damage, 100 complete death), 14 days after application
Summary of the method: as §3

[19] = test system: redroot pigweed (Amaranthus retroflexus, AMARE); assay: as above; settings: rating scale 0-100 (0 no damage, 100 complete death), 14 days after application
Summary of the method: as §3

[20] = test system: sicklepod (Cassia obtusifolia, CASOB); assay: as above; settings: rating scale 0-100 (0 no damage, 100 complete death), 14 days after application
Summary of the method: as §3

[21] = test system: velvetleaf (Abutilon theophrasti, ABUTH); assay: as above; settings: rating scale 0-100 (0 no damage, 100 complete death), 14 days after application
Summary of the method: as §3

[22] = test system: field corn (Zea mays L., var. Dekalb 535, CORN); assay: Post-emerge test, crop safety; settings: rating scale 0-100 (0 no damage, 100 complete death), 14 days after application
Summary of the method: as §1

[23] = test system: upland rice (Oryza sp., var. Tebonnet, RICE); assay: Post-emerge test, crop safety; settings: rating scale 0-100 (0 no damage, 100 complete death), 14 days after application
Summary of the method: as §1

## CCOC(=O)C(Cl)(C#N)Cc1c(OC)c(Cl)cc(F)c1-n1c(=O)cc(C(F)(F)F)n(C)c1=O (stereo not shown) [14-51]
[1]; 63 g ai/ha
  phytotoxicity rating AMARE: 100
[1]; 250 g ai/ha
  phytotoxicity rating AMARE: 100
[2]; 63 g ai/ha
  phytotoxicity rating ECHCG: 0
[2]; 250 g ai/ha
  phytotoxicity rating ECHCG: 0
[3]; 63 g ai/ha
  phytotoxicity rating SETVI: 0
[3]; 250 g ai/ha
  phytotoxicity rating SETVI: 0
[4]; 63 g ai/ha
  phytotoxicity rating IPOHE: 0
[4]; 250 g ai/ha
  phytotoxicity rating IPOHE: 50
[5]; 63 g ai/ha
  phytotoxicity rating SORHA: 0
[5]; 250 g ai/ha
  phytotoxicity rating SORHA: 0
[6]; 63 g ai/ha
  phytotoxicity rating CHEAL: 90
[6]; 250 g ai/ha
  phytotoxicity rating CHEAL: 100
[7]; 63 g ai/ha
  phytotoxicity rating DIGSA: 0
[7]; 250 g ai/ha
  phytotoxicity rating DIGSA: 0
[8]; 63 g ai/ha
  phytotoxicity rating CASOB: 0
[8]; 250 g ai/ha
  phytotoxicity rating CASOB: 0
[9]; 63 g ai/ha
  phytotoxicity rating ABUTH: 10
[9]; 250 g ai/ha
  phytotoxicity rating ABUTH: 100
[10]; 63 g ai/ha
  phytotoxicity rating CORN: 0
[10]; 250 g ai/ha
  phytotoxicity rating CORN: 0
[11]; 63 g ai/ha
  phytotoxicity rating RICE: 0
[11]; 250 g ai/ha
  phytotoxicity rating RICE: 0
[12]; Rate 63 g ai/ha
  Post-emerge Herbicidal Activity, phytotoxicity rating ECHCG: 10
[12]; Rate 250 g ai/ha
  Post-emerge Herbicidal Activity, phytotoxicity rating ECHCG: 20
[13]; Rate 63 g ai/ha
  Post-emerge Herbicidal Activity, phytotoxicity rating AMBEL: 0
[13]; Rate 250 g ai/ha
  Post-emerge Herbicidal Activity, phytotoxicity rating AMBEL: 20
[14]; Rate 63 g ai/ha
  Post-emerge Herbicidal Activity, phytotoxicity rating SETVI: 0
[14]; Rate 250 g ai/ha
  Post-emerge Herbicidal Activity, phytotoxicity rating SETVI: 0
[15]; Rate 63 g ai/ha
  Post-emerge Herbicidal Activity, phytotoxicity rating IPOHE: 0
[15]; Rate 250 g ai/ha
  Post-emerge Herbicidal Activity, phytotoxicity rating IPOHE: 30
[16]; Rate 63 g ai/ha
  Post-emerge Herbicidal Activity, phytotoxicity rating SORHA: 0
[16]; Rate 250 g ai/ha
  Post-emerge Herbicidal Activity, phytotoxicity rating SORHA: 0
[17]; Rate 63 g ai/ha
  Post-emerge Herbicidal Activity, phytotoxicity rating CHEAL: 0
[17]; Rate 250 g ai/ha
  Post-emerge Herbicidal Activity, phytotoxicity rating CHEAL: 10
[18]; Rate 63 g ai/ha
  Post-emerge Herbicidal Activity, phytotoxicity rating DIGSA: 0
[18]; Rate 250 g ai/ha
  Post-emerge Herbicidal Activity, phytotoxicity rating DIGSA: 0
[19]; Rate 63 g ai/ha
  Post-emerge Herbicidal Activity, phytotoxicity rating AMARE: 0
[19]; Rate 250 g ai/ha
  Post-emerge Herbicidal Activity, phytotoxicity rating AMARE: 0
[20]; Rate 63 g ai/ha
  Post-emerge Herbicidal Activity, phytotoxicity rating CASOB: 0
[20]; Rate 250 g ai/ha
  Post-emerge Herbicidal Activity, phytotoxicity rating CASOB: 0
[21]; Rate 63 g ai/ha
  Post-emerge Herbicidal Activity, phytotoxicity rating ABUTH: 0
[21]; Rate 250 g ai/ha
  Post-emerge Herbicidal Activity, phytotoxicity rating ABUTH: 50
[22]; Rate 63 g ai/ha
  Post-emerge phytotoxicity rating CORN (crop damage): 0
[22]; Rate 250 g ai/ha
  Post-emerge phytotoxicity rating CORN (crop damage): 0
[23]; Rate 63 g ai/ha
  Post-emerge phytotoxicity rating RICE (crop damage): 0
[23]; Rate 250 g ai/ha
  Post-emerge phytotoxicity rating RICE (crop damage): 0

Source: patent US6355799B1, “Substituted benzene compounds, process for their preparation, and herbicidal and defoliant compositions containing them” (ISK Americas Incorporated, priority 1997, dated 2002)
